# B1: ONA-0-v2: murine IgA antibody; heavy chain SEQ ID NO: 5, light chain SEQ ID NO: 9 (antibody)
# heavy: QVQLKQSGADLVRPGASVKLSCKASGYTFTDYYINWVKQRPGQGLEWIARIYPGSGNTYYNEKFKGKATLTAEKSSSTAYMQLSSLTSEDSAVYFCARGIGGGFGMDYWGQGTSVTVSSESARNPTIYPLTLPPVLCSDPVIIGCLIHDYFPFGTMNVTWGKSGKDITTVNFPPALASGGRYTMSSQLTLPAVECPEGESVKCSVQHDSNPVQELDVNCSPTPPPPITIPSCQPSLSLQRPALEDLLLGSDASITCTLNGLRNPEGAAFTWEPSTGKDAVQKKAAQNSCGCYSVSSVLPGCAERWNSGASFKCTVTHPESGTLTGTIAKVTVNTFPPQVHLLPPPSEELALNELLSLTCLVRAFNPKEVLVRWLHGNEELSPESYLVFEPLKEPGEGATTYLVTSVLRVSAETWKQGDQYSCMVGHEALPMNFTQKTIDRLSGKPTNVSVSVIMSEGDGICY
# light: NIVMTQSPKSMSMSVGERVTLTCKASENVVTYVSWYQQKPEQSPKLLIYGASNRYTGVPDRFTGSGSATDFTLTISSVQAEDLADYHCGQGYSYPYTFGGGTKLEIKRADAAPTVSIFPPSSEQLTSGGASVVCFLNNFYPKDINVKWKIDGSERQNGVLNSWTDQDSKDSTYSMSSTLTLTKDEYERHNSYTCEATHKTSTSPIVKSFNRNEC
# modifications: ONA-0-v1 heavy chain; ONA-0-v2 light chain
# B2: 1G06: chimeric ONA-0-v1 IgG1 antibody; heavy chain SEQ ID NO: 64, light chain SEQ ID NO: 23 (antibody)
# heavy: QVQLKQSGADLVRPGASVKLSCKASGYTFTDYYINWVKQRPGQGLEWIARIYPGSGNTYYNEKFKGKATLTAEKSSSTAYMQLSSLTSEDSAVYFCARGIGGGFGMDYWGQGTSVTVSSASTKGPSVFPLAPSSKSTSGGTAALGCLVKDYFPEPVTVSWNSGALTSGVHTFPAVLQSSGLYSLSSVVTVPSSSLGTQTYICNVNHKPSNTKVDKKVEPKSCDKTHTCPPCPAPESTRGPSVFLFPPKPKDTLMISRTPEVTCVVVDVSHEDPEVKFNWYVDGVEVHNAKTKPREEQYNSTYRVVSVLTVLHQDWLNGKEYKCKVSNKALPAPIEKTISKAKGQPREPQVYTLPPSRDELTKNQVSLTCLVKGFYPSDIAVEWESNGQPENNYKTTPPVLDSDGSFFLYSKLTVDKSRWQQGNVFSCSVMHEALHNHYTQKSLSLSPGK
# light: SIVMTQTPKFLLVSAGDRITITCKASQSVSDDVAWYQQKPGQSPKLLIYYASNRYTGVPDRFTGSGYGTDFTFTISTVQAEDLAVYFCQQDYSSPLTFGAGTKLEIKRTVAAPSVFIFPPSDEQLKSGTASVVCLLNNFYPREAKVQWKVDNALQSGNSQESVTEQDSKDSTYSLSSTLTLSKADYEKHKVYACEVTHQGLSSPVTKSFNRGEC
# Legend:
# Detroit 562 cells = experiment: Detroit 562 orthotopic mouse model of oral cancer metastasis; type: in vivo; details: single agent; antibody 1 mg/kg i.p. daily, cisplatin 2 mg/kg twice weekly
# Experimental: NOD scid gamma (NSG) (NOD.Cg-Prkdc^scidII2rg^tm1Wj1/SzJ) mice were purchased from Charles River and crossed in-house. All mice were housed under a regimen of 12h light/12h dark cycles and SPF conditions, and all procedures were evaluated and approved by the CEEA (Ethical Committee for Animal Experimentation) from the Government of Catalunya. SCC intra-tongue injection was performed as previously described (Oskarsson et al., 2014; Nieman et al., 2011). Briefly, mice were anesthetized by intraperitoneal injection with a mixture of 50 mg per kg of ketamine and 0.5 mg per kg of medetomidin, and SCC cells resuspended in 30 μl PBS were injected into each mouse tongue with a BD ultra-fine 6 mm needle. Mice were monitored for the luciferase bioluminescent signal immediately after injection (TO) and once weekly thereafter with a Xenogen IVIS Imaging System-100 (Caliper Life Sciences). Briefly, animals were injected by retro-orbital injection with 50 μl of D-luciferin (Promega) diluted in 1×PBS at 5 mg ml^−1. […] Data was quantified with the Living Image software version 4.4 (Caliper Life Sciences). Quantifications were calculated with unsaturated pixels. […]
# Antibody treatments were administered via intraperitoneal (i.p.) injection daily at a dose of 1 mg/kg. […] Further, mouse body weight was measured twice weekly to update appropriate dosage amounts. […]
# FaDu cells = experiment: FaDu orthotopic mouse model of oral cancer metastasis; type: in vivo; details: single agent
# Experimental: NOD scid gamma (NSG) (NOD.Cg-Prkdc^scidII2rg^tm1Wj1/SzJ) mice were purchased from Charles River and crossed in-house. All mice were housed under a regimen of 12h light/12h dark cycles and SPF conditions, and all procedures were evaluated and approved by the CEEA (Ethical Committee for Animal Experimentation) from the Government of Catalunya. SCC intra-tongue injection was performed as previously described (Oskarsson et al., 2014; Nieman et al., 2011). Briefly, mice were anesthetized by intraperitoneal injection with a mixture of 50 mg per kg of ketamine and 0.5 mg per kg of medetomidin, and SCC cells resuspended in 30 μl PBS were injected into each mouse tongue with a BD ultra-fine 6 mm needle. Mice were monitored for the luciferase bioluminescent signal immediately after injection (TO) and once weekly thereafter with a Xenogen IVIS Imaging System-100 (Caliper Life Sciences). Briefly, animals were injected by retro-orbital injection with 50 μl of D-luciferin (Promega) diluted in 1×PBS at 5 mg ml^−1. Continuous administration of isofluorane gas was provided to ensure anesthetizing animals during imaging. Data was quantified with the Living Image software version 4.4 (Caliper Life Sciences). Quantifications were calculated with unsaturated pixels. Color scale minimum and maximum values are shown in pictures.
# Studies on the combination of the effects of the ONA-0-v1 anti-CD36 antibody, both with and without cisplatin, were performed in NSG mice (immuno-deficient). The studies included both male and female mice. All mice were inoculated with commercially available FaDu (ATCC) cancer cells, transduced with a retroviral vector expressing luciferase and the green fluorescent protein (Luc-GFP). FaDu cells were derived from a squamous cell carcinoma (i.e., from an oral cancer). Prior to inoculation, the FaDu cells were cultured in a humidified incubator at 37° C. with 5% CO2, and were grown in EMEM (LONZA) supplemented with 5 μg ml^−1 penicillin/streptomycin and 10% FBS (GIBCO).
# For each mouse, 100,000 FaDu cells were inoculated via orthotopic injection.
# Treatment of the inoculated mice began nine days after inoculation with the cancer cells. Inoculated mice were divided into four distinct treatment groups.
# Antibody treatments were administered via intraperitoneal (i.p.) injection daily at a dose of 1 mg/kg. Cisplatin was administered twice weekly at a dose of 2 mg/kg (Groups 2 and 4). […] During the course of treatment, mice were observed once weekly using an in vivo imaging system (IVIS). Further, mouse body weight was measured twice weekly to update appropriate dosage amounts. At the end of the treatment period, the mice were sacrificed, and organs and tissues were collected for performance of immunohistochemistry analysis.
# CD36 = CD36 (Homo sapiens, UniProt P16671); experiment: ELISA binding to plate-coated human CD36; parameters: purchased Sino Biological 10752-H08H; details: recombinant human CD36 coated plates
# Experimental: (§1) To perform ELISA assays, 96-well ELISA plates were coated over night with human CD36 (Sino Biological, reference 10752-H08H) or mouse CD36 (Sino Biological, reference 50422-M08H) recombinant proteins at a concentration of 0.25 mg/ml. After two washes with PBS, plates were blocked with 4% skimmed milk in PBS for 1 hour at 37° C. Blocking solution was discarded and plates were washed five times with 200 μl/well PBS-Tween20 (0.5%). Primary antibodies were either omitted (control blocking solution treatment) or mixed in blocking solution at several dilutions ranging from 0.01 nM to 0.5 μM. The primary antibody solutions were added to the wells and incubated over night at 4° C. After 5 washes with 200 ul/well of PBS-Tween20 (0.5%), plates were incubated for 1 hour at room temperature with a goat anti-mouse HRP-conjugated antibody (Abeam, reference ab97235) diluted 1:2000 in blocking solution. Plates were then washed 5 times with 200 μl/well of PBS-Tween20 (0.5%), incubated with 100 μl/well TMB and detected after 10 minutes, 30 minutes, or 60 minutes with a spectrophotometer at a wave length of 630 nm.
# mouse CD36 = biological target: T1, mouse CD36 (Mus musculus, UniProt Q08857); experiment: ELISA binding to plate-coated mouse CD36; details: recombinant mouse CD36 coated plates
# T1 construct: purchased Sino Biological 50422-M08H
# Experimental: as §1
# [1] = biological target: T2, cells overexpressing human CD36 (Homo sapiens, UniProt P16671); experiment: FACS binding to cells overexpressing human CD36; details: serial dilution up to 100 nM
# T2 construct: expressed in transfected cells
# Experimental: For FACS analysis, cells were trypsinized, collected in a 15 mL tube and diluted in washing buffer (2% FBS in PBS). Cells were then centrifuged at 1500 rpm for 5 min at 4° C., supernatant was discarded, and cells were resuspended in fresh washing buffer. Anti-CD36 antibodies were either omitted (control wash buffer treatment) or serially diluted in washing buffer (dilution range up to 100 nM), and then added to the cells. Incubation was performed on ice for 1 hour. Cells were then centrifuged at 1500 rpm for 5 min at 4° C., supernatant was discarded, and cells were resuspended in fresh washing buffer. Finally, cells were incubated with a […] (BV421 Rat Anti-Mouse IgA, Becton Dickinson, reference 743293) diluted 1:100 in washing buffer, washed and analysed by FACS.
# Sequence of CD36 (P16671 30-439 limits assumed): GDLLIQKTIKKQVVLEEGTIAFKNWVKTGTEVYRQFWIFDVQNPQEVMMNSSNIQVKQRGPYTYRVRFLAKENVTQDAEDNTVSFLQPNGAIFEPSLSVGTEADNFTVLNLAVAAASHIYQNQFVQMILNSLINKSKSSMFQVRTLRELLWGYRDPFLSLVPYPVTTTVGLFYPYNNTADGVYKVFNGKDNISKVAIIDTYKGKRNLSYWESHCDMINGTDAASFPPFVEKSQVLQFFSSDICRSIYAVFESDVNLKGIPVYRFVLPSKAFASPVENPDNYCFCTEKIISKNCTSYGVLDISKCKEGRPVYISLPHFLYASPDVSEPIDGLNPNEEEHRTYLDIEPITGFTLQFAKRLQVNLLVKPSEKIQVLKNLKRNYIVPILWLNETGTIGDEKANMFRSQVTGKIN
# T1 sequence (Q08857 30-439 limits assumed): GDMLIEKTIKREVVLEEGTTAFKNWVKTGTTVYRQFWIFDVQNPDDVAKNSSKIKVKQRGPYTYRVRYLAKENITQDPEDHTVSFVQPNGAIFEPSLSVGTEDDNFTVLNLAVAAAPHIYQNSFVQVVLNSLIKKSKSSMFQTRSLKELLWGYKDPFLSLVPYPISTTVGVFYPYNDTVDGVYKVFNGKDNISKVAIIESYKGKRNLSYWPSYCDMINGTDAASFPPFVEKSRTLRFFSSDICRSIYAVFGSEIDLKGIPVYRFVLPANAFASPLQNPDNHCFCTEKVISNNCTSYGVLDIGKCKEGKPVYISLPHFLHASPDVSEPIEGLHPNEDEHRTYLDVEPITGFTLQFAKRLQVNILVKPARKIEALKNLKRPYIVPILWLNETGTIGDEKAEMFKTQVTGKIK
# T2 sequence (P16671 whole entry): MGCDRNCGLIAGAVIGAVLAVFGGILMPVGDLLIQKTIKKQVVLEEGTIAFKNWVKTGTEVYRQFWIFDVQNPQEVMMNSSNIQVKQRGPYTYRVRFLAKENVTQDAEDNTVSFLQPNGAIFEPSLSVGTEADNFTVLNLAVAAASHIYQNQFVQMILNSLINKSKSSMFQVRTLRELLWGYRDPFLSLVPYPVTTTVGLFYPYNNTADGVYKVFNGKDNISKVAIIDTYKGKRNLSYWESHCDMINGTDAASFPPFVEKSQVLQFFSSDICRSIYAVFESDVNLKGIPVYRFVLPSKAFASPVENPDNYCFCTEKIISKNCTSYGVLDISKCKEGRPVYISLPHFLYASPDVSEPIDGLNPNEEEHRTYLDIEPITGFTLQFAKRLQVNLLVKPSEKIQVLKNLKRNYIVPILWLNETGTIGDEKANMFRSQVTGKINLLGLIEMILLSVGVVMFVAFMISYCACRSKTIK
molecule,measurement,setting,value
"N.N.[Cl][Pt][Cl] [cisplatin, reference compound]",size of lung metastases,Detroit 562 cells,did reduce the size
same,mice in which metastasis into lymph nodes was prevented,FaDu cells; eight tested mice per group,one of the eight
same,effect on primary tumor (IVIS imaging and H&E staining),"FaDu cells; antibody 1 mg/kg i.p. daily, cisplatin 2 mg/kg twice weekly",inhibited tumor growth
B1,binding to human CD36 in ELISA,CD36,did not interact
same,binding to mouse CD36 in ELISA,mouse CD36,did not interact
B2,binding to cells overexpressing human CD36 (FACS),[1],bound equivalently

# — patent publication US12643954B2, “Anti-CD36 antibodies and their use to treat cancer” (ONA Therapeutics, S.L., priority 2020, dated 2026)
